From US20170291905A1, “ARGININE […] INHIBITORS AND USES THEREOF” (Epizyme, Inc., priority 2014, published 2017)
Structures can show the parent of a compound that is named as a salt.

Biological target: full-length human PRMT8 isoform 1 (Homo sapiens, UniProt Q9NR22)
Test: PRMT8 biochemical assay (3H-SAM Flashplate, histone H4 31-45 peptide)
Settings: 1.5 nM PRMT8, 30 min preincubation, 150 nM peptide
From the text: S-adenosylmethionine (SAM), S-adenosylhomocysteine (SAH), bicine, Tween20, dimethylsulfoxide (DMSO), bovine skin gelatin (BSG), isopropyl-β-D-thiogalactopyranoside (IPTG), and Tris(2-carboxyethyl)phosphine hydrochloride solution (TCEP) were purchased from Sigma-Aldrich at the highest level of purity possible. ^3H-SAM was purchase from American Radiolabeled Chemicals with a specific activity of 80 Ci/mmol. 384-well streptavidin Flashplates were purchased from PerkinElmer.
Peptide representative of human histone H4 residues 31-45 was synthesized with an N-terminal linker-affinity tag motif and a C-terminal amide cap by 21st Century Biochemicals. The peptide was purified by high-performance liquid chromatography (HPLC) to greater than 95% purity and confirmed by liquid chromatography mass spectrometry (LC-MS). The sequence was Biot-Ahx-[…]-amide (SEQ ID NO.:8).
The resulting construct encodes an N-terminal GST tag and a thrombin cleavage sequence
E. coli (BL21(DE3) Gold, Stratagene) made competent by the CaCl2 method were transformed with the PRMT8 construct and ampicillin selection. Protein over-expression was accomplished by growing the PRMT8 expressing E. coli clone and inducing expression with 0.3 mM IPTG at 16° C. The culture was grown for 12 hours, harvested by centrifugation, and stored at −80° C. for purification.
GST-tagged PRMT8 was eluted with 50 mM Tris, 2 mM glutathione, pH 7.8. Pooled fractions were cleaved by thrombin (10U) and dialysed in buffer A. GST was removed by reloading the cleaved protein sample onto glutathione sepharose column and PRMT8 was collected in the flow-through fractions. PRMT8 was purified further by ceramic hydroxyapatite chromatography. The column was washed with 50 mM phosphate buffer, 100 mM NaCl, 5% glycerol, 5 mM […], pH 7.8 and PRMT8 was eluted by 100 mM phosphate in the same buffer. Protein was concentrated and buffer was exchanged to 50 mM Tris, 300 mM NaCl, 10% glycerol, 5 mM β-mercaptoethanol, pH 7.8 by ultrafiltration. The purity of recovered protein was 89%.
General Procedure for PRMT8 Enzyme Assays on Peptide Substrates.
The assays were all performed in a buffer consisting of 20 mM Bicine (pH=7.6), 1 mM TCEP, 0.005% BSG, and 0.002% Tween 20, prepared on the day of use. Compounds in 100% DMSO (1 ul) were spotted into a polypropylene 384-well V-bottom plates (Greiner) using a Platemate Plus outfitted with a 384-channel head (Thermo Scientific). DMSO (1 ul) was added to Columns 11, 12, 23, 24, rows A-H for the maximum signal control and 1 ul of SAH, a known product and inhibitor of PRMT8, was added to columns 11, 12, 23, 24, rows I-P for the minimum signal control. A cocktail (40 ul) containing the PRMT8 enzyme was added by Multidrop Combi (Thermo-Fisher). The compounds were allowed to incubate with PRMT8 for 30 min at room temperature, then a cocktail (10 ul) containing ^3H-SAM and peptide was added to initiate the reaction (final volume=51 ul). The final concentrations of the components were as follows: PRMT8 was 1.5 nM, ^3H-SAM was 50 nM, non-radiolabeled SAM was 550 nM, peptide was 150 nM, SAH in the minimum signal control wells was 1 mM, and the DMSO concentration was 2%. The assays were stopped by the addition of non-radiolabeled SAM (10 ul) to a final concentration of 400 uM, which dilutes the ^3H-SAM to a level where its incorporation into the peptide substrate is no longer detectable. 50 ul of the reaction in the 384-well polypropylene plate was then transferred to a 384-well Flashplate and the biotinylated peptides were allowed to bind to the streptavidin surface for at least 1 hour before being washed once with 0.1% Tween20 in a Biotek ELx405 plate washer. The plates were then read in a PerkinElmer TopCount plate reader to measure the quantity of ^3H-labeled peptide bound to the Flashplate surface, measured as disintegrations per minute (dpm) or alternatively, referred to as counts per minute (cpm). […]

Sequence of full-length human PRMT8 isoform 1 (Q9NR22 whole entry, canonical isoform): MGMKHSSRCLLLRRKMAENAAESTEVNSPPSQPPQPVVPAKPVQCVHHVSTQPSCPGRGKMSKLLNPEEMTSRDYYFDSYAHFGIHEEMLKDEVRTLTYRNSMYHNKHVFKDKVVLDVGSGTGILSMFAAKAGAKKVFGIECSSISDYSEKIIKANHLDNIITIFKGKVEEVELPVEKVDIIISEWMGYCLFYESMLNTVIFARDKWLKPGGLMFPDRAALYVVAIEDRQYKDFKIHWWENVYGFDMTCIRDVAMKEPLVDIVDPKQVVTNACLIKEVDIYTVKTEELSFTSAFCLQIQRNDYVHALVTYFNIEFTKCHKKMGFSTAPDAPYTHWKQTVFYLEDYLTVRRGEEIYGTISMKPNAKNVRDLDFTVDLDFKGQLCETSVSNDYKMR

Structure (SMILES)	IC50 [µM]
CNCCN(C)Cc1c[nH]nc1C1CCC(OCCCOC)C2(CCCC2)C1 (mixture of isomers) [compound 19, N1-((3-(10-(3-methoxypropoxy)spiro[4.5]decan-7-yl)-1H-pyrazol-4-yl)methyl)-N1,N2-dimethylethane-1,2-diamine dihydrochloride]	0.0301
CNCCN(C)Cc1c[nH]nc1[C@@H]1CC[C@@H](OCCCOC)C2(CCCC2)C1 (racemic) [compound 26, N1-((3-((7R,10R)-10-(3-methoxypropoxy)spiro[4.5]decan-7-yl)-1H-pyrazol-4-yl)methyl)-N1,N2-dimethylethane-1,2-diamine]	0.0676
CNCCN(C)Cc1c[nH]nc1[C@@H]1CC[C@H](OCCCOC)C2(CCCC2)C1 (racemic) [compound 27, N1-((3-((7R,10S)-10-(3-methoxypropoxy)spiro[4.5]decan-7-yl)-1H-pyrazol-4-yl)methyl)-N1,N2-dimethylethane-1,2-diamine]	0.0312
CNCCN(C)Cc1c[nH]nc1C1CC(COCC2CC2)CC(COCC2CC2)C1 (centres unmarked) [compound 2]	0.365
CNCCN(C)Cc1c[nH]nc1[C@H]1CC[C@@]2(CCCCO2)CC1 [compound 3]	0.0328
CNCCN(C)Cc1c[nH]nc1[C@H]1CC[C@]2(CCCOC2)CC1 [compound 4, N1-((3-((6s,9s)-2-oxaspiro[5.5]undecan-9-yl)-1H-pyrazol-4-yl)methyl)-N1,N2-dimethylethane-1,2-diamine]	0.016
CNCCN(C)Cc1c[nH]nc1[C@H]1CC[C@@]2(CCCOC2)CC1 [compound 5, N1-((3-((6r,9r)-2-oxaspiro[5.5]undecan-9-yl)-1H-pyrazol-4-yl)methyl)-N1,N2-dimethylethane-1,2-diamine]	0.0177
CNCCN(C)Cc1c[nH]nc1C1CCC(COCC(C)C)(COCC(C)C)CC1 [compound 6]	0.0624
CNCCN(C)Cc1c[nH]nc1C1CCC2(CCC(OC)CC2)CC1 (centres unmarked) [compound 9, N1-((3-(9-methoxyspiro[5.5]undecan-3-yl)-1H-pyrazol-4-yl)methyl)-N1,N2-dimethylethane-1,2-diamine]	0.0111
CNCCN(C)Cc1c[nH]nc1[C@H]1CC[C@]2(CCN(CCC(C)C)C2=O)CC1 [compound 10]	0.106
CNCCN(C)Cc1c[nH]nc1[C@H]1CC[C@@]2(CCN(CCC(C)C)C2=O)CC1 [compound 11, (5r,8r)-2-isopentyl-8-(4-((methyl(2-(methylamino)ethyl)amino)methyl)-1H-pyrazol-3-yl)-2-azaspiro[4.5]decan-1-one]	0.0102
CNCCN(C)Cc1c[nH]nc1C1C[C@@H](C(=O)N(C)CC(C)C)C(C)(C)[C@H](C(=O)N(C)CC(C)C)C1 (some centres unmarked) [compound 12]	> 10
CNCCN(C)Cc1c[nH]nc1C1C[C@H](C(=O)NCCOC)C(C)(C)[C@H](C(=O)NCCOC)C1 (some centres unmarked) [compound 13]	> 10
CCN(C)C(=O)C1CC(c2n[nH]cc2CN(C)CCNC)CC(C(=O)NCCC(C)C)C1(C)C (centres unmarked) [compound 14, N1-ethyl-N3-isopentyl-N1,2,2-trimethyl-5-(4-((methyl(2-(methylamino)ethyl)amino)methyl)-1H-pyrazol-3-yl)cyclohexane-1,3-dicarboxamide]	> 10
CNCCN(C)Cc1c[nH]nc1C1=CCC(CF)(CF)CC1 [compound 15, N-((3-(4,4-bis(fluoromethyl)cyclohex-1-en-1-yl)-1H-pyrazol-4-yl)methyl)-N1,N2-dimethylethane-1,2-diamine]	0.0153
CNCCN(C)Cc1c[nH]nc1C1=CCC(COCC(F)(F)F)CC1 (centres unmarked) [compound 16, N1,N2-dimethyl-N1-((3-(4-((2,2,2-trifluoroethoxy)methyl)cyclohex-1-en-1-yl)-1H-pyrazol-4-yl)methyl)ethane-1,2-diamine]	0.0264
CNCCN(C)Cc1c[nH]nc1C1CCC(C)(C)[C@H](OCC(C)C)C1 (stereo partly drawn) [compound 20, ({3-[(3R)-4,4-dimethyl-3-(2-methylpropoxy)cyclohexyl]-1H-pyrazol-4-yl}methyl)(methyl)[2-(methylamino)ethyl]amine]	0.0245
CCC1CC(c2n[nH]cc2CN(C)CCNC)CC(C(=O)NCCOC)C1(C)C (centres unmarked) [compound 21, 3-ethyl-N-(2-methoxyethyl)-2,2-dimethyl-5-[4-([methyl[2-(methylamino)ethyl]amino]methyl)-1H-pyrazol-3-yl]cyclohexane-1-carboxamide dihydrochloride]	0.614
CCC1(CC)CC2(CCC(c3n[nH]cc3CN(C)CCNC)CC2)N(C)C1=O (centres unmarked) [compound 22, 3,3-diethyl-1-methyl-8-(4-((methyl(2-(methylamino)ethyl)amino)methyl)-1H-pyrazol-3-yl)-1-azaspiro[4.5]decan-2-one]	0.0203
CNCCN(C)Cc1c[nH]nc1[C@H]1CC[C@@H](COCC(F)(F)F)CC1 [compound 23, N1,N2-dimethyl-N1-((3-((1s,4s)-4-((2,2,2-trifluoroethoxy)methyl)cyclohexyl)-1H-pyrazol-4-yl)methyl)ethane-1,2-diamine]	0.0918
CNCCN(C)Cc1c[nH]nc1[C@H]1CC[C@H](COCC(F)(F)F)CC1 [compound 24, N1,N2-dimethyl-N1-((3-((1r,4r)-4-((2,2,2-trifluoroethoxy)methyl)cyclohexyl)-1H-pyrazol-4-yl)methyl)ethane-1,2-diamine]	0.0183
CNCCN(C)Cc1cn(C)nc1C1CCC(C)(C)[C@@H](C(=O)NCC(C)C)C1 (some centres unmarked) [compound 25]	2.79
CNCCNCc1c[nH]nc1[C@H]1CC[C@@]2(CC1)CC(C)(C)CO2 [compound 28, N1-((3-((5s,8s)-3,3-dimethyl-1-oxaspiro[4.5]decan-8-yl)-1H-pyrazol-4-yl)methyl)-N2-methylethane-1,2-diamine]	0.0207
CNCCNCc1c[nH]nc1[C@H]1CC[C@]2(CC1)CC(C)(C)CO2 [compound 29, N1-((3-((5r,8r)-3,3-dimethyl-1-oxaspiro[4.5]decan-8-yl)-1H-pyrazol-4-yl)methyl)-N2-methylethane-1,2-diamine]	0.258
CNCCN(C)Cc1c[nH]nc1C1CCC(C)(C)[C@H](COCCCOC)C1 (stereo partly drawn) [compound 30, {2-[({3-[(3R)-3-[(3-methoxypropoxy)methyl]-4,4-dimethylcyclohexyl]-1H-pyrazol-4-yl}methyl)(methyl)amino]ethyl}(methyl)amine]	0.187
CCOC[C@@H]1CC(c2n[nH]cc2CN(C)CCNC)CCC1(C)C (stereo partly drawn) [compound 31, {2-[({3-[(3R)-3-(ethoxymethyl)-4,4-dimethylcyclohexyl]-1H-pyrazol-4-yl}methyl)(methyl)amino]ethyl}(methyl)amine]	0.325
CNCCN(C)Cc1c[nH]nc1C1CCC(C)(C)[C@H](CO)C1 (stereo partly drawn) [compound 32, [(1R)-2,2-dimethyl-5-[4-({methyl[2-(methylamino)ethyl]amino}methyl)-1H-pyrazol-3-yl]cyclohexyl]methanol]	0.291
CCC1(CC)C[C@]2(CC[C@H](c3n[nH]cc3CN(C)CCNC)CC2)OC1=O [compound 33, (5s,8s)-3,3-diethyl-8-(4-((methyl(2-(methylamino)ethyl)amino)methyl)-1H-pyrazol-3-yl)-1-oxaspiro[4.5]decan-2-one]	0.0958
CCC1(CC)C[C@]2(CC[C@@H](c3n[nH]cc3CN(C)CCNC)CC2)OC1=O [compound 34, (5r,8r)-3,3-diethyl-8-(4-((methyl(2-(methylamino)ethyl)amino)methyl)-1H-pyrazol-3-yl)-1-oxaspiro[4.5]decan-2-one]	0.146
